Molecular target: CFTR-mediated chloride transport (Homo sapiens, UniProt P13569)
Test: Corrector Assay A - membrane potential dye assay (enteroid cells)
Conditions: for Corrector Assay A % activity: % of chloride transport of triple combination control (1 μM (14S)-dispiro macrocycle + 3 μM tezacaftor + 300 nM ivacaftor); for EC50: read-out: Corrector Assay A EC50, human intestinal enteroid cells, 18-24 h incubation, acute 10 μM forskolin + 300 nM ivacaftor

Row | SMILES | Corrector Assay A % activity | EC50 [nM]
1 | CC(C)(C)c1ccnc(C2CC[C@@H]3CN(c4nc(C(C)(C)C)ncc4C(=O)NS(=O)(=O)c4cccc(n4)N2)C(C)(C)C3)c1 (single isomer, unassigned) [Compound 1] | + (+ is <30%) | –
2 | CC(C)(C)c1ccnc(C2CC[C@@H]3CN(c4nc(C(C)(C)C)ncc4C(=O)NS(=O)(=O)c4cccc(n4)N2)C(C)(C)C3)c1 (single isomer, unassigned) [Compound 2] | +++ (+++ is >60%) | < 1000
3 | Cc1cccc2cc3c(nc12)N1C[C@@H](CCC(c2cc(C(C)(C)C)ccn2)Nc2cccc(n2)S(=O)(=O)NC3=O)CC1(C)C (single isomer, unassigned) [Compound 3] | +++ (+++ is >60%) | < 1000
4 | Cc1cccc2cc3c(nc12)N1C[C@@H](CCC(c2cc(C(C)(C)C)ccn2)Nc2cccc(n2)S(=O)(=O)NC3=O)CC1(C)C (single isomer, unassigned) [Compound 4] | ++ (++ is 30-60%) | < 1000
5 | Cc1ccc2nc3c(cc2c1)C(=O)NS(=O)(=O)c1cccc(n1)N[C@H](c1cc(C(C)(C)C)ccn1)CC[C@@H]1CN3C(C)(C)C1 (single isomer, unassigned) [Compound 5] | +++ (+++ is >60%) | < 1000
6 | Cc1ccc2nc3c(cc2c1)C(=O)NS(=O)(=O)c1cccc(n1)N[C@H](c1cc(C(C)(C)C)ccn1)CC[C@@H]1CN3C(C)(C)C1 (single isomer, unassigned) [Compound 6] | ++ (++ is 30-60%) | < 1000
7 | Cc1ccc2cc3c(nc2c1)N1C[C@@H](CC[C@@H](c2cc(C(C)(C)C)ccn2)Nc2cccc(n2)S(=O)(=O)NC3=O)CC1(C)C (single isomer, unassigned) [Compound 7] | +++ (+++ is >60%) | < 1000
8 | Cc1ccc2cc3c(nc2c1)N1C[C@@H](CC[C@@H](c2cc(C(C)(C)C)ccn2)Nc2cccc(n2)S(=O)(=O)NC3=O)CC1(C)C (single isomer, unassigned) [Compound 8] | ++ (++ is 30-60%) | < 1000
9 | CC(C)(C)c1ccnc([C@@H]2CC[C@@H]3CN(c4nc5ccccc5cc4C(=O)NS(=O)(=O)c4cccc(n4)N2)C(C)(C)C3)c1 (single isomer, unassigned) [Compound 9] | +++ (+++ is >60%) | < 1000
10 | CC(C)(C)c1ccnc([C@@H]2CC[C@@H]3CN(c4nc5ccccc5cc4C(=O)NS(=O)(=O)c4cccc(n4)N2)C(C)(C)C3)c1 (single isomer, unassigned) [Compound 10] | ++ (++ is 30-60%) | < 1000
11 | CC(O)CC1CC[C@@H]2CN(c3nc(C(C)(C)C)ccc3C(=O)NS(=O)(=O)c3cccc(n3)N1)C(C)(C)C2 (single isomer, unassigned) [Compound 20] | ++ (++ is 30-60%) | < 1000
12 | CC(O)CC1CC[C@@H]2CN(c3nc(C(C)(C)C)ccc3C(=O)NS(=O)(=O)c3cccc(n3)N1)C(C)(C)C2 (single isomer, unassigned) [Compound 22] | ++ (++ is 30-60%) | < 1000
13 | CC(C)(O)/C=C/CC1CC[C@@H]2CN(c3nc(C(C)(C)C)ccc3C(=O)NS(=O)(=O)c3cccc(n3)N1)C(C)(C)C2 (single isomer, unassigned) [Compound 23] | +++ (+++ is >60%) | < 1000
14 | CC(C)(O)/C=C/CC1CC[C@@H]2CN(c3nc(C(C)(C)C)ccc3C(=O)NS(=O)(=O)c3cccc(n3)N1)C(C)(C)C2 (single isomer, unassigned) [Compound 24] | ++ (++ is 30-60%) | < 1000
15 | CC(C)(C)c1ccc2c(n1)N1C[C@@H](CCC(c3cc(C4COC4)ccn3)Nc3cccc(n3)S(=O)(=O)NC2=O)CC1(C)C (single isomer, unassigned) [Compound 25] | +++ (+++ is >60%) | < 1000
16 | CC(C)(C)c1ccc2c(n1)N1C[C@@H](CCC(c3cc(C4COC4)ccn3)Nc3cccc(n3)S(=O)(=O)NC2=O)CC1(C)C (single isomer, unassigned) [Compound 26] | +++ (+++ is >60%) | < 1000
17 | C[C@@H](O)C[C@@H]1CC[C@@H]2CN(c3nc(C(C)(C)C)ccc3C(=O)NS(=O)(=O)c3cccc(n3)N1)C(C)(C)C2 (single isomer, unassigned) [Compound 27] | ++ (++ is 30-60%) | < 1000
18 | C[C@@H](O)C[C@@H]1CC[C@@H]2CN(c3nc(C(C)(C)C)ccc3C(=O)NS(=O)(=O)c3cccc(n3)N1)C(C)(C)C2 (single isomer, unassigned) [Compound 28] | +++ (+++ is >60%) | < 1000
19 | CC(C)(C)c1ccc2c(n1)N1C[C@@H](CCC(CC(O)CO)Nc3cccc(n3)S(=O)(=O)NC2=O)CC1(C)C (single isomer, unassigned) [Compound 30] | ++ (++ is 30-60%) | < 1000

Row | SMILES | Corrector Assay A % activity | EC50 [nM]
20 | CC(C)(C)c1ccc2c(n1)N1C[C@@H](CCC(CC(O)CO)Nc3cccc(n3)S(=O)(=O)NC2=O)CC1(C)C (single isomer, unassigned) [Compound 31] | ++ (++ is 30-60%) | < 1000
21 | CC(C)(C)c1ccc2c(n1)N1C[C@@H](CCC(CC(O)CO)Nc3cccc(n3)S(=O)(=O)NC2=O)CC1(C)C (single isomer, unassigned) [Compound 32] | +++ (+++ is >60%) | < 1000
22 | CC(C)(C)c1ccc2c(n1)N1C[C@@H](CCC(CC(O)CO)Nc3cccc(n3)S(=O)(=O)NC2=O)CC1(C)C (single isomer, unassigned) [Compound 33] | +++ (+++ is >60%) | < 1000
23 | C=CCC1CC[C@@H]2CN(c3nc(C(C)(C)C)ccc3C(=O)NS(=O)(=O)c3cccc(n3)N1)C(C)(C)C2 (single isomer, unassigned) [Compound 34] | +++ (+++ is >60%) | < 1000
24 | C=CCC1CC[C@@H]2CN(c3nc(C(C)(C)C)ccc3C(=O)NS(=O)(=O)c3cccc(n3)N1)C(C)(C)C2 (single isomer, unassigned) [Compound 35] | ++ (++ is 30-60%) | < 1000
25 | CC(C)(C)c1ccc2c(n1)N1C[C@@H](CCC(c3cc(C(C)(C)O)ccn3)Nc3cccc(n3)S(=O)(=O)NC2=O)CC1(C)C (single isomer, unassigned) [Compound 36] | +++ (+++ is >60%) | < 1000
26 | CC(C)(C)c1ccc([C@@H]2CC[C@@H]3CN(c4nc(C(C)(C)C)ccc4C(=O)NS(=O)(=O)c4cccc(n4)N2)C(C)(C)C3)cc1 (single isomer, unassigned) [Compound 37] | ++ (++ is 30-60%) | < 1000
27 | CC(C)(C)c1ccc([C@@H]2CC[C@@H]3CN(c4nc(C(C)(C)C)ccc4C(=O)NS(=O)(=O)c4cccc(n4)N2)C(C)(C)C3)cc1 (single isomer, unassigned) [Compound 38] | +++ (+++ is >60%) | < 1000
28 | CC(C)(C)c1ccc2c(n1)N1C[C@@H](CCC(c3ccc(C4COC4)cn3)Nc3cccc(n3)S(=O)(=O)NC2=O)CC1(C)C (single isomer, unassigned) [Compound 39] | +++ (+++ is >60%) | < 1000
29 | CC(C)(C)c1cccc(C2CC[C@@H]3CN(c4nc(C(C)(C)C)ccc4C(=O)NS(=O)(=O)c4cccc(n4)N2)C(C)(C)C3)c1 (single isomer, unassigned) [Compound 40] | ++ (++ is 30-60%) | < 1000
30 | CC(C)(C)c1cccc(C2CC[C@@H]3CN(c4nc(C(C)(C)C)ccc4C(=O)NS(=O)(=O)c4cccc(n4)N2)C(C)(C)C3)c1 (single isomer, unassigned) [Compound 41] | +++ (+++ is >60%) | < 1000
31 | CC1(C)CC(C2CC[C@@H]3CN(c4nc(C(C)(C)C)ccc4C(=O)NS(=O)(=O)c4cccc(n4)N2)C(C)(C)C3)CC(C)(C)O1 (single isomer, unassigned) [Compound 42] | ++ (++ is 30-60%) | < 1000
32 | CC1(C)CC(C2CC[C@@H]3CN(c4nc(C(C)(C)C)ccc4C(=O)NS(=O)(=O)c4cccc(n4)N2)C(C)(C)C3)CC(C)(C)O1 (single isomer, unassigned) [Compound 43] | + (+ is <30%) | –
33 | CC(C)(C)c1ccc2c(n1)N1C[C@@H](CCC(C)(c3ccccn3)Nc3cccc(n3)S(=O)(=O)NC2=O)CC1(C)C (single isomer, unassigned) [Compound 44] | ++ (++ is 30-60%) | < 1000
34 | CC(C)(C)c1ccc2c(n1)N1C[C@@H](CCC(C)(c3ccccn3)Nc3cccc(n3)S(=O)(=O)NC2=O)CC1(C)C (single isomer, unassigned) [Compound 45] | ++ (++ is 30-60%) | < 1000
35 | CC(C)(C)c1ccc2c(n1)N1C[C@@H](CCC(c3cc(Br)ccn3)Nc3cccc(n3)S(=O)(=O)NC2=O)CC1(C)C (single isomer, unassigned) [Compound 46] | +++ (+++ is >60%) | < 1000
36 | CC(C)(C)c1ccc2c(n1)N1C[C@@H](CCC(c3cc(Br)ccn3)Nc3cccc(n3)S(=O)(=O)NC2=O)CC1(C)C (single isomer, unassigned) [Compound 47] | ++ (++ is 30-60%) | < 1000
37 | CC(C)(C)c1ccc2c(n1)N1C[C@@H](CCC(c3cc(N)ccn3)Nc3cccc(n3)S(=O)(=O)NC2=O)CC1(C)C (single isomer, unassigned) [Compound 48] | ++ (++ is 30-60%) | 1000 to 3000
38 | CC(C)(C)c1ccc2c(n1)N1C[C@@H](CCC(c3cc(N)ccn3)Nc3cccc(n3)S(=O)(=O)NC2=O)CC1(C)C (single isomer, unassigned) [Compound 49] | ++ (++ is 30-60%) | < 1000

From patent US20220313698A1, “MODULATORS OF CYSTIC FIBROSIS TRANSMEMBRANE CONDUCTANCE REGULATOR” (Vertex Pharmaceuticals Incorporated, priority 2019, published 2022)
